PubChem BioAssay (NCI)
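Tested at 5 concentrations; 48 h exposure; 96-well plates; endpoints linearly interpolated, else capped at highest concentration. GI50: concentration for 50% inhibition of growth. Definition used: TGI = concentration required for complete inhibition of growth.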

Tests used:
Assay in all cases: NCI anticancer screen, dose series, 48 h
EKVX NSCLC = tested on: EKVX NSCLC
OVCAR-8 ovarian = tested on: OVCAR-8 ovarian
OVCAR-3 ovarian = tested on: OVCAR-3 ovarian
SK-OV-3 ovarian = tested on: SK-OV-3 ovarian
NCI-H226 lung = tested on: NCI-H226 lung
ACHN renal = tested on: ACHN renal
UACC-257 melanoma = tested on: UACC-257 melanoma
KM12 colon = tested on: KM12 colon
HS 578T breast = tested on: HS 578T breast
MDA-MB-231 breast = tested on: MDA-MB-231 breast

Compound | TGI (EKVX NSCLC) [µM] | TGI (OVCAR-8 ovarian) [µM] | TGI (OVCAR-3 ovarian) [µM] | TGI (SK-OV-3 ovarian) [µM] | TGI (NCI-H226 lung) [µM] | TGI (ACHN renal) [µM] | TGI (UACC-257 melanoma) [µM] | TGI (KM12 colon) [µM] | GI50 (EKVX NSCLC) [nM] | GI50 (HS 578T breast) [nM] | TGI (HS 578T breast) [µM] | GI50 (OVCAR-3 ovarian) [nM] | GI50 (SK-OV-3 ovarian) [nM] | GI50 (NCI-H226 lung) [nM] | GI50 (ACHN renal) [nM] | GI50 (UACC-257 melanoma) [nM] | GI50 (KM12 colon) [nM] | GI50 (MDA-MB-231 breast) [nM] | TGI (MDA-MB-231 breast) [µM] | GI50 (OVCAR-8 ovarian) [nM]
COC(=O)/C=C/C1C(C(=O)OC)C2(C(=O)OC)CCC1(C(=O)OC)N2 (stereo not given) | > 100 | > 100 | > 100 | > 100 | > 100 | > 100 | > 100 | > 100 |  |  |  |  |  |  |  |  |  |  |  | 
CCCCCc1c(C)[nH]c(/C=C2\N=C(c3ccc[nH]3)C=C2CC)c1C | 0.364 |  | 0.103 | 0.383 | 0.0452 | 0.189 | 0.167 | 0.191 | 21.6 | 14 | 0.129 | 19.9 | 60.9 | < 13.1 | 22.5 | 28.6 | < 10 | < 10 | 0.0186 | 
Nc1c(C(=O)N/N=C/c2ccc(-c3ccc(Cl)cc3)o2)cnn1-c1ccnc2c(C(F)(F)F)cccc12 | > 100 |  | > 100 | > 100 | > 100 | > 100 |  | > 100 | > 100000 | > 100000 | > 100 | > 100000 | > 100000 | > 100000 | > 100000 |  | > 100000 | > 100000 | > 100 | 
CCOC(=O)C1=C(C)N(N)C(=S)NC1c1ccc(C)cc1 (stereo not given) |  | > 100 | > 100 |  | > 100 | > 100 | > 100 | > 100 |  |  |  | 22400 |  | 33800 | 22600 | 36200 | 64400 | 1200 | > 100 | > 100000
C#C[C@]1(O)CC[C@H]2[C@@H]3CC=C4c5sc(Nc6ccccc6)nc5CC[C@]4(C)[C@H]3CC[C@@]21C | 13.8 | 26.8 | 5.34 | 10.6 | 7.59 |  | 8.6 | 12.7 | 2830 | 504 | 5.23 | 1890 | 2370 | 2550 |  | 2460 | 2660 | 2010 | 6.8 | 2710
O=C(CN1CCCCC1)N1CCc2c([nH]c3ccccc23)C1c1cccnc1 (stereo not given) | > 100 | > 100 | > 100 | > 100 |  | > 100 | > 100 | > 100 |  |  |  |  |  |  |  |  |  |  |  | 
COC(=O)C12C3C4C5(C(=O)OC)C(C1C35C(=O)N(C(C)C)C(C)C)C42C(=O)N(C(C)C)C(C)C (stereo not given) | > 50 | > 50 | > 50 | > 50 | > 50 | > 50 | > 50 | > 50 |  |  |  |  |  |  |  |  |  |  |  | 
O=C(CCC/C(CC(=O)c1ccc(Br)cc1)=N\O)Nc1ccccc1 | > 100 | > 100 | > 100 |  | > 100 | > 100 | > 100 | > 100 |  |  |  |  |  |  |  |  |  |  |  | 
Cc1cc(C)n(CCNCCn2nc(C)cc2C)n1 | > 100 | > 100 | > 100 | > 100 |  | > 100 | > 100 | > 100 |  |  |  |  |  |  |  |  |  |  |  | 
CC(=O)Oc1ccccc1C(=O)N=C1[Se]CCCN1C(=O)c1ccccc1OC(C)=O |  |  |  | 6.16 | 4.74 | 4.79 |  |  |  | 2070 | 6.32 |  | 3400 | 2010 | 2300 |  |  | 2220 | 5.02 | 
N#CC1Nc2ccccc2[C@@H](O)C1O (stereo not given in full) | > 100 | > 100 | > 100 | > 100 |  | > 100 | > 100 | > 100 |  |  | > 100 |  |  |  |  |  |  |  | > 100 | 
CCOC(=O)CCc1c(C)c2c(OC(C)=O)cc(OC(C)=O)cc2oc1=O | > 100 | > 100 | 83.3 |  |  | > 100 | > 100 | > 100 |  |  |  |  |  |  |  |  |  |  |  | 
CN1CCc2c(Sc3ccc(C(=O)NO)cc3)c3ccccc3n2C1 |  | 5.42 | 6.74 | 5.67 | 14.9 | 12.6 | 9.1 | 3.67 |  | 2640 | 27 | 2160 | 2080 | 2750 | 3040 | 1750 | 1720 | 1750 | 4.19 | 1690
CC1=C(C(=O)Nc2c(C)cccc2C)C(c2ccccc2Cl)C(C(=O)Nc2c(C)cccc2C)=C(C)N1 | > 100 | > 100 | > 100 | > 100 | > 100 | > 100 | > 100 | > 100 |  |  |  |  |  |  |  |  |  |  |  | 
N#C/C(=C\c1ccc(O)c(O)c1)C(N)=O | > 100 | > 100 | 86.1 | > 100 | > 100 | > 100 | > 100 | > 100 |  |  |  |  |  |  |  |  |  |  |  | 
CC(=O)OCC1OC([S-])C(OC(C)=O)C(OC(C)=O)C1OC(C)=O.CC[PH+](CC)CC.CC[PH+](CC)CC.[Au].[Au] (stereo not given) | 0.921 | 1.52 | 1.19 | 3.05 | 1.7 | 2.38 | 0.937 | 2.66 | 405 |  |  | 376 | 1680 | 244 | 1010 | 214 | 1040 |  |  | 371
NC1CCCC[C@H]1N.N[C@@H]1CCCC[C@@H]1N.O=C(P(=O)([O-])[O-])P(=O)([O-])[O-].[Pt+4].[Pt+4] | > 100 | > 100 | > 100 | > 100 | > 100 | > 100 | > 100 | > 100 | > 100000 |  |  | > 100000 | > 100000 | > 100000 | 82200 | > 100000 | > 100000 |  |  | > 100000
Nc1nc(Nc2ccccc2)c2ncn(Cc3cc4c(cc3Br)OCO4)c2n1 | > 100 | 0.832 | 0.237 | 2.36 | 31.5 | 30.4 |  | 21 | < 27.6 | 75 | > 94.9 | 32.6 | 37.3 | 777 | 79.9 |  | 41.8 | 49.7 | > 51.9 | 170
CC(C)(C)N1CC2(CCCCC2)C1=O | > 100 | > 100 | > 100 | > 100 | > 100 | > 100 | > 100 | > 100 |  |  |  |  |  |  |  |  |  |  |  | 
